Measurements: patent US20090106858A1, “Isolation and Characterization of the Csb3-1 Mutant of Arabidopsis Thaliana and Use Thereof as a Regulator of Resistance in Plants to Diseases Caused by Biotrophic Pathogens” (priority 2005, published 2009)
“Also recorded” adds a separate entry of the source.

Legend:
[1] = test system: P69C-GUS; conditions: wild Arabidopsis plants, local application (Jordá et al., 2000); cited from earlier work
[2] = test system: Pseudomonas syringae pv. tomato DC3000; experiment: Pst DC3000 bacterial growth in Arabidopsis seedlings sprayed with phosmidomicine before inoculation; format: in vivo, Arabidopsis thaliana
Source text: An increase in substrate (MEcPP) accumulation of the CSB3/HDS enzyme or of any of the intermediate metabolic products that precede MEcPP accumulation in the MEP pathway (FIG. 6) could be responsible for the increased resistance of csb3-1 plants. Alternatively, a decrease of product synthesis (HMBPP) of the same enzyme could compromise the synthesis and accumulation of final products (IPP and DMAPP) (FIG. 6) that in turn could compromise the later biosynthesis of the different isoprenoids that must be derived from the MEP pathway. This last possibility can also be responsible for the resistance increase of the csb3-1 plants. In order to study any of these possibilities the impact of an inhibitor in the MEP pathway for increased resistance of csb3-1 plants to Pst DC3000 was studied. To approach the question in this manner phosmidomicine [3-(N-formil-N-hydroxyamino)-propylphosphonic acid] was used as well as a DXR competitive inhibitor, the enzyme that controls the second stage involved in the MEP pathway (FIG. 6) and reduces the levels of the final products obtained by this pathway (that is, IPP and DMAPP) (Schwender, J., Muller, C., Zeidler, J., and Lichtenthaler, H. K. (1999). Cloning and heterologous expression of a cDNA encoding 1-deoxy-D-xylulose-5 phosphate reductoisomerase of Arabidopsis thaliana. FEBS Lett. 455, 140-144; Laule, O., Furholz, A., Chang, H., Zhu, T., Wang, X., Heifetz, P. B., Gruissem, W., and Lange, M. (2003). Crosstalk between cytosolic and plastidial pathways of isoprenoid biosynthesis in Arabidopsis thaliana. Proc. Natl. Acad. Sci. USA 100, 6866-6871). In order to separate this response from the response derived from an arrest of the chloroplast development, phosmidomicine treatments were applied in much smaller dosages and during smaller periods of times than those used experimentally by others (Laule et al., 2003). Wild seedlings and csb3-1 seedlings were sprayed once with a 25 μM or a 50 μM dilution of phosmidomicine 48 hours and 24 hours before inoculation with Pst DC3000 and the subsequent bacterial growth was recorded in inoculated plants at 0.3 and 5 d.p.i. Treated plants were also studied to determine the effect on the normal expression of the P69C-GUS gene. […] Greater dosages of this inhibitor were not tested, since they could have a collateral developmental and/or homeostatic effect in the chloroplast that could lead to undesired side effects.
FIG. 8. […] The plants were exposed to Pst DC3000 and the pathogen's growth was recorded at days 0, 3 and 5 after inoculation (dpi). • (B) The effect of the phosmidomicine treatment (25 μM, treated as described in point (A) on the constitutive expression of P69C-GUS in csb3-1 seedlings (right) as compared with csb3-1 seedlings treated with the buffer solution alone (left). • (C) The effect of the phosmidomicine treatment (25 μM, treated as described in point (A) on the constitutive expression of SA regulated marker genes in csb3-1 seedlings of Arabidopsis as compared with csb3-1 seedlings treated with the buffer solution alone.
Pseudomonas syringae pv. tomato DC3000 was grown and was then prepared to be inoculated as previously described (Mayda et al., 2000). […] A high throughput method for quantifying growth of phytopathogenic bacteria in Arabidopsis thaliana. […]

[3] = test system: P69C-GUS; experiment: Histochemical GUS staining of P69C-GUS indicator gene expression; format: in vivo, Arabidopsis thaliana; conditions: csb3-1 seedlings, 25 μM
Description: (§1) FIG. 8. Pharmacological complementation with phosmidomicine of the resistance increase in csb3-1 plants. • (A) Wild seedlings (wt) and csb3-1 seedlings of Arabidopsis were sprayed once at 48 hours and 24 hours before exposing them to Pst DC3000 with a buffer solution complemented with 25 μM or 50 μM dilution (+phosm) the controls were treated in a similar manner with buffer solution alone. The plants were exposed to Pst DC3000 and the pathogen's growth was recorded at days 0, 3 and 5 after inoculation (dpi). • (B) The effect of the phosmidomicine treatment (25 μM, treated as described in point (A) on the constitutive expression of P69C-GUS in csb3-1 seedlings (right) as compared with csb3-1 seedlings treated with the buffer solution alone (left). • (C) The effect of the phosmidomicine treatment (25 μM, treated as described in point (A) on the constitutive expression of SA regulated marker genes in csb3-1 seedlings of Arabidopsis as compared with csb3-1 seedlings treated with the buffer solution alone.
The mutant line csb3-1 used in these experiments had been subjected to backcrossing at least four times with the original wild line. Plants were made to grow in a growth chamber (19-23° C., fluorescent light at 100 μEm^−2 seg^−1) in a cycle of 10 hours of light to 14 hours of darkness. […]

[4] = test system: PR-1 and GST6 marker genes; experiment: RT-PCR analysis of SA regulated marker genes PR-1 and GST6; format: in vivo, Arabidopsis thaliana; conditions: csb3-1 seedlings, 25 μM
Description: as §1
To analyze the level of genic expression by inverse transcriptase mediated PCR, the total RNA samples from leaf tissue were prepared using the Totally RNA kit made by Ambion (Austin, Tex.). Inverse transcription was done using the RT kit for PCR made by Clontech (Palo Alto, Calif.). […]

Compound | expression of P69C-GUS after local application [1] | effect on increased resistance of csb3-1 plants to Pst DC3000 (bacterial growth) ([2]; csb3-1 plants, 5 μM treatments) | complementation of the resistance increase phenotype associated to csb3-1 ([2]; csb3-1 plants, summary statement) | effect on increased resistance of csb3-1 plants to Pst DC3000 (bacterial growth) ([2]; csb3-1 seedlings, one 50 μM treatment) | effect on increased resistance of csb3-1 plants to Pst DC3000 (bacterial growth) ([2]; csb3-1 seedlings, sprayed once with 25 μM 48 h and 24 h before inoculation) | effect on normal resistance of wild plants to Pst DC3000 (bacterial growth) ([2]; wild plants, 50 μM) | effect on constitutive expression of the P69C-GUS transgene [3] | effect on constitutive expression of PR-1 and GST6 marker genes [4]
O=C(O)c1ccccc1O [SA, Salicylic acid] | induces the expression of the P69C-GUS | – | – | – | – | – | – | –
O=CN(O)CCCP(=O)(O)O [phosmidomicine, 3-(N-formil-N-hydroxyamino)-propylphosphonic acid] | – | provoked a reduction in the increased resistance of the csb3-1 plants that was only observed 5 days after inoculation | complement completely the resistance increase phenotype associated to csb3-1 | completely suppressed the resistance increase attributed to the csb3-1 mutation | noticeably reduce resistance increase to Pst DC3000 | made the plants more susceptible to this virulent pathogen; also recorded: resulted in greater rates of bacterial growth | regulation by reduction of the constitutive expression of the P69G-GUS transgene | regulation by reduction of the constitutive expression
